Source: patent US20240158348A1, “HERBICIDAL CYCLIC AMIDES N-SUBSTITUTED WITH A HALOALKYLSULFONYLANILIDE GROUP” (FMC Corporation, priority 2021, published 2024)

Legend:
Format in all cases: in vivo
[1] = tested on: oat, wild (wild oat, Avena fatua); experiment: Test C postemergence, wild oat; conditions: for Oat, Wild plant response rating: visual injury, 0 to 100 scale (0 no effect, 100 complete control); for Plant response rating (0 to 100 scale), Oat, Wild: 0 is no effect, 100 is complete control
kochia (Bassia scoparia) = experiment: Test C preemergence, kochia; conditions: 0 is no effect, 100 is complete control
Method in brief: (§1)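 Visual injury rating, 0 (no effect) to 100 (complete control), versus untreated controls after 10 or 12 days in the greenhouse. Compounds were formulated in non-phytotoxic solvent plus surfactant and applied either as a directed soil spray at sowing or onto emerged one- to two-leaf plants.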

[2] = tested on: ragweed (common ragweed, Ambrosia artemisiifolia); experiment: Test C postemergence, ragweed; conditions: for Ragweed plant response rating: visual injury, 0 to 100 scale (0 no effect, 100 complete control); for Plant response rating (0 to 100 scale), Ragweed: 0 is no effect, 100 is complete control
Method in brief: as §1

corn (Zea mays) [3] = experiment: Test C postemergence, corn; conditions: for Corn plant response rating: visual injury, 0 to 100 scale (0 no effect, 100 complete control); for Plant response rating (0 to 100 scale), Corn: 0 is no effect, 100 is complete control
corn (Zea mays) [4] = experiment: Test C preemergence, corn; conditions: 0 is no effect, 100 is complete control
Method in brief: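 Herbicidal effect was estimated visually on a 0–100 scale 10 or 12 days after spraying. Formulation: non-phytotoxic solvent mixture with surfactant. Timing: directed soil spray after sowing, or postemergence on seedlings bearing one or two leaves.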

[5] = tested on: blackgrass (Alopecurus myosuroides); experiment: Test C preemergence, blackgrass; conditions: 0 is no effect, 100 is complete control
Method in brief: as §1

soybean (Glycine max) = experiment: Test C preemergence, soybean; conditions: 0 is no effect, 100 is complete control
Method in brief: as §1

[6] = tested on: horseweed (Erigeron canadensis); experiment: Test C postemergence, horseweed; conditions: for Horseweed plant response rating: visual injury, 0 to 100 scale (0 no effect, 100 complete control); for Plant response rating (0 to 100 scale), Horseweed: 0 is no effect, 100 is complete control
Method in brief: as §1

Compound	Oat, Wild plant response rating ([1]; 31 g ai/ha Postemergence)	Plant response rating (0 to 100 scale), Oat, Wild ([1]; 125 g ai/ha Postemergence)	Plant response rating (0 to 100 scale), Kochia (kochia (Bassia scoparia); 31 g ai/ha Preemergence)	Plant response rating (0 to 100 scale), Kochia (kochia (Bassia scoparia); 125 g ai/ha Preemergence)	Ragweed plant response rating ([2]; 31 g ai/ha Postemergence)	Ragweed plant response rating ([2]; 125 g ai/ha Postemergence)	Corn plant response rating (corn (Zea mays) [3]; 31 g ai/ha Postemergence)	Plant response rating (0 to 100 scale), Corn (corn (Zea mays) [3]; 125 g ai/ha Postemergence)	Plant response rating (0 to 100 scale), Corn (corn (Zea mays) [4]; 31 g ai/ha Preemergence)	Plant response rating (0 to 100 scale), Corn (corn (Zea mays) [4]; 125 g ai/ha Preemergence)	Plant response rating (0 to 100 scale), Blackgrass ([5]; 31 g ai/ha Preemergence)	Plant response rating (0 to 100 scale), Blackgrass ([5]; 125 g ai/ha Preemergence)	Plant response rating (0 to 100 scale), Soybean (soybean (Glycine max); 31 g ai/ha Preemergence)	Plant response rating (0 to 100 scale), Soybean (soybean (Glycine max); 125 g ai/ha Preemergence)	Plant response rating (0 to 100 scale), Ragweed ([2]; 125 g ai/ha Postemergence)	Horseweed plant response rating ([6]; 31 g ai/ha Postemergence)	Plant response rating (0 to 100 scale), Horseweed ([6]; 125 g ai/ha Postemergence)	Oat, Wild plant response rating ([1]; 125 g ai/ha Postemergence)	Corn plant response rating (corn (Zea mays) [3]; 125 g ai/ha Postemergence)	Horseweed plant response rating ([6]; 125 g ai/ha Postemergence)
Cc1cc(C)c(N2CCC(OC3CC3)C2=O)cc1NS(=O)(=O)C(F)(F)F (single isomer, unassigned) [Compound 30]	50	80	90	100	90	90	90	90	90	90	80	100	80	90	–	–	–	–	–	–
CO/N=C1\CCN(c2cc(NS(=O)(=O)C(F)(F)F)c(C)cc2C)C1=O [Compound 9, 1,1,1-trifluoro-N-[5-[3-(methoxyimino)-2-oxo-1-pyrrolidinyl]-2,4-dimethylphenyl]methanesulfonamide]	80	80	100	100	70	–	90	90	50	100	–	–	80	100	80	100	100	–	–	–
Cc1cc(C)c(N2CC/C(=N\O)C2=O)cc1NS(=O)(=O)C(F)(F)F [Compound 10, 1,1,1-trifluoro-N-[5-[3-(hydroxyimino)-2-oxo-1-pyrrolidinyl]-2,4-dimethylphenyl]methanesulfonamide]	80	80	90	100	50	–	90	90	30	90	–	–	60	70	50	80	90	–	–	–
Cc1c(NS(=O)(=O)C(F)(F)F)cc(N2CCC(OC3CCC3)C2=O)c(C)c1F (centres unmarked) [Compound 25]	0	20	70	100	60	80	30	60	30	90	80	90	80	90	–	–	–	–	–	–
Cc1c(NS(=O)(=O)C(F)(F)F)cc(N2CCC(OC3CC3)C2=O)c(C)c1C (centres unmarked) [Compound 47]	10	–	70	100	60	80	70	–	30	90	–	–	50	90	–	–	–	60	90	100
Cc1c(N2CCC(OC3CCC3)C2=O)cc(N(C(=O)OCC(C)C)S(=O)(=O)C(F)(F)F)c(C)c1C (centres unmarked) [Compound 48]	10	–	10	90	30	80	0	–	20	60	–	–	30	70	–	70	–	20	50	90
Cc1c(N2CCC(OC3CC3)C2=O)cc(N(COC(=O)C(C)(C)C)S(=O)(=O)C(F)(F)F)c(C)c1C (centres unmarked) [Compound 49]	30	–	30	70	70	90	50	–	0	50	–	–	0	40	–	–	–	70	100	100
Cc1c(N2CCC(OC3CCC3)C2=O)cc(N(COC(=O)C(C)(C)C)S(=O)(=O)C(F)(F)F)c(C)c1C (centres unmarked) [Compound 51]	0	–	30	80	60	80	0	–	0	40	–	–	0	30	–	60	–	30	60	90
Cc1cc(C)c(N(COC(=O)C(C)(C)C)S(=O)(=O)C(F)(F)F)cc1N1CCC(OCC2CC2)C1=O (centres unmarked) [Compound 53]	10	–	0	50	70	90	20	–	0	50	–	–	20	40	–	80	–	50	60	90
Cc1cc(C)c(N(COC(=O)C(C)(C)C)S(=O)(=O)C(F)(F)F)cc1N1CCC(OCC2CC2(F)F)C1=O (centres unmarked) [Compound 54]	10	–	0	30	50	80	0	–	0	30	–	–	0	30	–	70	–	80	80	90
Cc1cc(C)c(N(COC(=O)C(C)(C)C)S(=O)(=O)C(F)(F)F)cc1N1CCC(OCC2CCC2)C1=O (centres unmarked) [Compound 56]	10	–	0	70	20	60	0	–	0	10	–	–	0	30	–	20	–	10	30	80
